Assay results as given in PubChem BioAssay (NCI).
Where “and” joins values, the source holds several entries; their conditions need not be identical. Equal values may be shown once.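 Tested at 5 concentrations; 48 h exposure; 96-well plates; endpoints linearly interpolated, else capped at highest concentration. At the GI50, growth is halved. TGI denotes the concentration required for complete inhibition of growth.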

Experiments:
Assay in all cases: DTP human tumour cell line panel, 48 h
HOP-62 NSCLC = tested on: HOP-62 NSCLC
LOX IMVI melanoma = tested on: LOX IMVI melanoma
RXF 393 renal = tested on: RXF 393 renal
SK-MEL-2 melanoma = tested on: SK-MEL-2 melanoma
NCI/ADR-RES ovarian = tested on: NCI/ADR-RES ovarian
UACC-62 melanoma = tested on: UACC-62 melanoma
SW-620 colon = tested on: SW-620 colon
HL-60(TB) leukemia = tested on: HL-60(TB) leukemia
SF-295 CNS = tested on: SF-295 CNS
HCT-116 colon = tested on: HCT-116 colon

Row | Compound | GI50 (HOP-62 NSCLC) [µM] | TGI (HOP-62 NSCLC) [µM] | GI50 (LOX IMVI melanoma) [µM] | TGI (LOX IMVI melanoma) [µM] | GI50 (RXF 393 renal) | TGI (RXF 393 renal) | GI50 (SK-MEL-2 melanoma) | TGI (SK-MEL-2 melanoma) [µM] | GI50 (NCI/ADR-RES ovarian) [µM] | TGI (NCI/ADR-RES ovarian) [µM] | GI50 (UACC-62 melanoma) | TGI (UACC-62 melanoma) | GI50 (SW-620 colon) | TGI (SW-620 colon) [µM] | GI50 (HL-60(TB) leukemia) | TGI (HL-60(TB) leukemia) [µM] | GI50 (SF-295 CNS) [µM] | TGI (SF-295 CNS) [µM] | GI50 (HCT-116 colon) | TGI (HCT-116 colon) [µM]
1 | COc1cc(N2CCN(C(C)C)CC2)ccc1Nc1nc(Nc2ccc(F)cc2C(N)=O)c2cc[nH]c2n1 | 0.668 | 5.26 | 0.124 | 4.63 | 0.857 µM | 5.27 µM | 0.163 µM | 1.77 | 3.76 | 11.6 | 2.53 µM | 6.42 µM | 0.0905 µM | 4.17 | 0.0594 µM | 4.7 | 3.99 | 10.3 | 0.119 µM | 3.6
2 | O=C(Nc1ccn(C2CCC(COC(c3ccccc3)(c3ccccc3)c3ccccc3)O2)c(=O)n1)c1ccccc1 (configuration not stated) | – | 16.3 | – | 7.02 | – | 11.1 µM | – | 8.71 | – | 8.73 | – | 16.7 µM | – | 15.2 | – | 4.7 | – | 5.9 | – | 11.9
3 | C=C1CC2(CC(c3ccccc3C)OC(c3ccccc3C)C2)OC1=O (configuration not stated) | – | 26.8 | – | 3.05 | – | 3.88 µM | – | 4.13 | – | 14.3 | – | 3.23 µM | – | 3.59 | – | 11.6 | – | 29.4 | – | 3.21
4 | [N-]=[N+]=NCCCn1c2c(c3ccccc3c1=O)C(=O)c1cc3c(cc1-2)OCO3 | 17.6 | > 100 | 44.9 | > 100 | > 100 µM | > 100 µM | > 100 µM | > 100 | 90.9 | > 100 | 26.9 µM | > 100 µM | > 100 µM | > 100 | 43.6 µM | > 100 | 44.1 | > 100 | 29.8 µM | > 100
5 | Cc1cc(S(=O)(=O)Nc2nc3ccccc3s2)c(SCc2ccccc2)cc1Cl | 31.6 | > 100 | 12.1 | 24.5 | 23.8 µM | 49.7 µM | 37.2 µM | > 100 | 15.8 | 35.9 | 10.8 µM | 27.9 µM | 18.8 µM | 37.6 | 17.3 µM | 45.4 | 11 | 32.4 | 15.1 µM | 28.4
6 | NC(=O)C1CCCN1Cc1ccc2c(c1)OCO2 (configuration not stated) | – | > 100 | – | > 100 | – | > 100 µM | – | > 100 | – | > 100 | – | > 100 µM | – | > 100 | – | > 100 | – | > 100 | – | > 100
7 | CC(=O)OCc1cc[c]([Hg][Cl])o1 | 13.8 | 28.6 | 1.96 | 4.96 | 5.12 µM | 17.4 µM | 16.7 µM | 32.2 | 10.8 | 39.1 | 2.59 µM | 11.3 µM | 1.6 µM | 3.82 | 2.46 µM | 6.28 | 14.3 | 28.8 | 10.1 µM | 24.3
8 | C#Cc1cccc(NC(=O)C2CCCCN2C(=O)CCl)c1 (configuration not stated) | > 82.5 | > 82.5 | 7.6 | 18.6 | 13.4 µM | 34.4 µM | 23.9 µM | > 82.5 | 16.5 | 47.3 | 18.9 µM | > 82.5 µM | 12.1 µM | 31.5 | 16.8 µM | 51.7 | > 82.5 | > 82.5 | 13.7 µM | 43.2
9 | CN1CCN(CCCn2c3c(sc4ncccc43)c(=O)n3nnc(-c4ccccc4)c23)CC1 | 1.63 | 3.4 | 1.39 | 2.75 | 4.4 µM | 8.75 µM | 21.6 µM | 39 | 1.95 | 4.77 | 17.6 µM | 33.8 µM | 1.52 µM | 3.25 | 1.48 µM | 3.47 | 1.73 | 3.36 | 1.72 µM | 3.31
10 | Cc1cc(C(=O)NOCCO)c(Nc2ccc(I)cc2F)n(C)c1=O | – | > 100 | – | > 100 | 0.0915 µM and 0.199 µM | > 10 µM and 92.3 µM | 0.00299 µM and < 0.01 µM | – | > 90.6 | > 100 | 0.0015 µM and < 0.01 µM | 0.0116 µM and 0.0221 µM | 0.00252 µM and < 0.01 µM | > 100 | 0.00173 µM and < 0.01 µM | > 49.6 | > 100 | > 100 | 0.011 µM and 0.0164 µM | > 100
11 | COc1cc2cc(C(=O)Nc3ccccc3)c(N)nc2cc1OC | 62.6 | > 100 | 42.3 | > 100 | 23.7 µM | > 100 µM | 69.1 µM | > 100 | 28.4 | > 100 | 28.6 µM | > 100 µM | > 100 µM | > 100 | 43.6 µM | > 100 | 46.7 | > 100 | 40.4 µM | > 100
12 | COc1cc(/C=C/[N+](=O)[O-])cc(OC)c1 | 2.93 | 10.4 | 1.42 | 2.75 | 1.75 µM | 3.27 µM | 2.1 µM | 4.76 | 3.02 | 13.6 | 2.42 µM | 7.34 µM | 1.68 µM | 3.65 | 2.22 µM | 5.68 | 2.54 | 7.29 | 1.84 µM | 3.64
13 | COc1ccc(/C=C2\CCC(C)(CN(C)C)C2=O)cc1Br (configuration not stated) | – | 97 | – | 35.3 | – | 35.7 µM | – | 36.9 | – | 43.2 | – | 20 µM | – | 38.4 | – | 85.2 | – | 80.7 | – | 32.1
14 | Fc1ccc(Nc2ccnc(N3CCN(c4ccnc5cc(Cl)ccc45)CC3)n2)cc1 | 3.83 | 65.4 | 1.82 | 3.62 | 3.39 µM | 72.3 µM | 2.16 µM | 4.07 | 2.24 | 6.41 | 1.73 µM | 4.53 µM | 2.92 µM | 13.9 | 2.59 µM | 6.44 | 1.33 | 3.2 | 1.97 µM | 5.24
